Assay results reported in ChEMBL document CHEMBL1201862, “PubChem BioAssay data set” (2004).
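The compound was tested at five concentrations on cells cultured in 96-well plates, with a 48-hour exposure period. GI50 marks 50% less growth.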 Activity calls are given as the source filed them. Rule as the data show it: active = GI50 up to about 1.1 µM and inactive = higher.

Key:
Assay in all cases: DTP human tumour cell line panel, 48 h
[1] = test system: 786-0
[2] = test system: A498
[3] = test system: A549
[4] = test system: ACHN
[5] = test system: CCRF-CEM
[6] = test system: COLO 205
[7] = test system: DLD-1
[8] = test system: DMS-114
[9] = test system: DMS-273
[10] = test system: EKVX
[11] = test system: HCT-116
[12] = test system: HCT-15
[13] = test system: HL-60
[14] = test system: HOP-62
[15] = test system: HOP-92
[16] = test system: HT-29
[17] = test system: IGROV-1
[18] = test system: K562
[19] = test system: KM-20L2
[20] = test system: KM12
[21] = test system: LOX IMVI
[22] = test system: LXFL 529
[23] = test system: M14
[24] = test system: M19-MEL
[25] = test system: MOLT-4
[26] = test system: NCI-H226
[27] = test system: NCI-H23
[28] = test system: NCI-H460
[29] = test system: NCI-H522
[30] = test system: OVCAR-3
[31] = test system: OVCAR-4
[32] = test system: OVCAR-5
[33] = test system: OVCAR-8
[34] = test system: RPMI-8226
[35] = test system: RXF 393
[36] = test system: SF-268
[37] = test system: SF-295
[38] = test system: SF-539
[39] = test system: SK-MEL-28
[40] = test system: SK-MEL-2
[41] = test system: SK-MEL-5
[42] = test system: SK-OV-3
[43] = test system: SN12C
[44] = test system: SNB-19
[45] = test system: SNB-75
[46] = test system: SNB-78
[47] = test system: SW-620
[48] = test system: TK-10
[49] = test system: U-251
[50] = test system: UACC-62
[51] = test system: UO-31
[52] = test system: XF498
[53] = test system: HCC 2998
[54] = test system: Malme-3M
[55] = test system: UACC-257
[56] = test system: CAKI-1
[57] = test system: MCF7
[58] = test system: NCI/ADR-RES
[59] = test system: SR

COc1ccc(C(=O)O)c(Br)c1OCc1ccccc1
GI50 [1]: > 100 µM (inactive)
GI50 [2]: > 100 µM (inactive)
GI50 [3]: > 100 µM (inactive)
GI50 [4]: > 100 µM (inactive)
GI50 [5]: > 100 µM (inactive)
GI50 [6]: > 100 µM (inactive)
GI50 [7]: > 100 µM (inactive)
GI50 [8]: > 100 µM (inactive)
GI50 [9]: > 100 µM (inactive)
GI50 [10]: > 100 µM (inactive)
GI50 [11]: > 100 µM (inactive)
GI50 [12]: > 100 µM
GI50 [13]: > 100 µM (inactive)
GI50 [14]: > 100 µM (inactive)
GI50 [15]: > 100 µM (inactive)
GI50 [16]: > 100 µM (inactive)
GI50 [17]: > 100 µM (inactive)
GI50 [18]: > 100 µM (inactive)
GI50 [19]: > 100 µM (inactive)
GI50 [20]: > 100 µM (inactive)
GI50 [21]: > 100 µM (inactive)
GI50 [22]: > 100 µM (inactive)
GI50 [23]: > 100 µM (inactive)
GI50 [24]: > 100 µM (inactive)
GI50 [25]: > 100 µM (inactive)
GI50 [26]: > 100 µM (inactive)
GI50 [27]: > 100 µM (inactive)
GI50 [28]: > 100 µM (inactive)
GI50 [29]: > 100 µM (inactive)
GI50 [30]: > 100 µM (inactive)
GI50 [31]: > 100 µM (inactive)
GI50 [32]: > 100 µM (inactive)
GI50 [33]: > 100 µM (inactive)
GI50 [34]: > 100 µM (inactive)
GI50 [35]: > 100 µM (inactive)
GI50 [36]: > 100 µM (inactive)
GI50 [37]: > 100 µM (inactive)
GI50 [38]: > 100 µM (inactive)
GI50 [39]: > 100 µM (inactive)
GI50 [40]: > 100 µM (inactive)
GI50 [41]: > 100 µM (inactive)
GI50 [42]: > 100 µM (inactive)
GI50 [43]: 92.5 µM (inactive)
GI50 [44]: > 100 µM (inactive)
GI50 [45]: > 100 µM (inactive)
GI50 [46]: > 100 µM (inactive)
GI50 [47]: > 100 µM (inactive)
GI50 [48]: > 100 µM (inactive)
GI50 [49]: > 100 µM (inactive)
GI50 [50]: > 100 µM (inactive)
GI50 [51]: 88.3 µM (inactive)
GI50 [52]: > 100 µM (inactive)

C/C(=N\N(C)C)C(CN(C)C)C(c1ccccc1)c1c(O)c2ccccc2oc1=O (centres undefined)
GI50 [1]: > 100 µM (inactive)
GI50 [3]: > 100 µM (inactive)
GI50 [4]: > 100 µM (inactive)
GI50 [5]: > 100 µM (inactive)
GI50 [6]: > 100 µM (inactive)
GI50 [7]: > 100 µM (inactive)
GI50 [8]: > 100 µM (inactive)
GI50 [9]: > 100 µM (inactive)
GI50 [10]: 68.7 µM (inactive)
GI50 [53]: > 100 µM (inactive)
GI50 [11]: > 100 µM (inactive)
GI50 [12]: > 100 µM
GI50 [13]: > 100 µM (inactive)
GI50 [15]: 70.5 µM (inactive)
GI50 [16]: > 100 µM (inactive)
GI50 [17]: > 100 µM (inactive)
GI50 [18]: > 100 µM (inactive)
GI50 [19]: > 100 µM (inactive)
GI50 [20]: > 100 µM (inactive)
GI50 [21]: > 100 µM (inactive)
GI50 [22]: > 100 µM (inactive)
GI50 [23]: > 100 µM (inactive)
GI50 [25]: > 100 µM (inactive)
GI50 [54]: > 100 µM (inactive)
GI50 [26]: > 100 µM (inactive)
GI50 [27]: > 100 µM (inactive)
GI50 [28]: > 100 µM (inactive)
GI50 [29]: > 100 µM (inactive)
GI50 [30]: > 100 µM (inactive)
GI50 [31]: > 100 µM (inactive)
GI50 [32]: > 100 µM (inactive)
GI50 [33]: > 100 µM (inactive)
GI50 [34]: > 100 µM (inactive)
GI50 [35]: > 100 µM (inactive)
GI50 [36]: > 100 µM (inactive)
GI50 [37]: > 100 µM (inactive)
GI50 [39]: > 100 µM (inactive)
GI50 [40]: > 100 µM (inactive)
GI50 [41]: > 100 µM (inactive)
GI50 [42]: > 100 µM (inactive)
GI50 [43]: > 100 µM (inactive)
GI50 [44]: > 100 µM (inactive)
GI50 [45]: 30.3 µM (inactive)
GI50 [46]: > 100 µM (inactive)
GI50 [47]: > 100 µM (inactive)
GI50 [48]: > 100 µM (inactive)
GI50 [49]: > 100 µM (inactive)
GI50 [55]: > 100 µM (inactive)
GI50 [50]: > 100 µM (inactive)
GI50 [52]: > 100 µM (inactive)

O=NN(CCCl)C(=O)Nc1ccc(Cl)c(Cl)c1
GI50 [2]: > 83.8 µM (inactive)
GI50 [3]: > 100 µM (inactive)
GI50 [56]: 81.1 µM (inactive)
GI50 [5]: 59.8 µM (inactive)
GI50 [6]: > 100 µM (inactive)
GI50 [7]: 53.5 µM (inactive)
GI50 [8]: 6.67 µM (inactive)
GI50 [9]: 72.8 µM (inactive)
GI50 [10]: 46.9 µM (inactive)
GI50 [53]: > 60.7 µM (inactive)
GI50 [11]: > 100 µM (inactive)
GI50 [12]: > 71.6 µM
GI50 [13]: > 100 µM (inactive)
GI50 [14]: 0.546 µM (active)
GI50 [15]: > 77.8 µM (inactive)
GI50 [16]: 76.6 µM (inactive)
GI50 [17]: > 56.5 µM (inactive)
GI50 [18]: 36.9 µM (inactive)
GI50 [19]: 25.3 µM (inactive)
GI50 [20]: > 77.3 µM (inactive)
GI50 [21]: 78.5 µM (inactive)
GI50 [24]: 69.5 µM (inactive)
GI50 [57]: 38.5 µM (inactive)
GI50 [25]: > 100 µM (inactive)
GI50 [54]: > 100 µM (inactive)
GI50 [26]: 46.6 µM (inactive)
GI50 [27]: > 69.7 µM (inactive)
GI50 [28]: 56.8 µM (inactive)
GI50 [29]: 28.3 µM (inactive)
GI50 [58]: 48.4 µM (inactive)
GI50 [30]: 41.9 µM (inactive)
GI50 [31]: 61.1 µM (inactive)
GI50 [32]: > 67.9 µM (inactive)
GI50 [33]: 71.6 µM (inactive)
GI50 [34]: 50 µM (inactive)
GI50 [35]: > 100 µM (inactive)
GI50 [36]: 31.6 µM (inactive)
GI50 [37]: 48.5 µM (inactive)
GI50 [38]: > 91.2 µM (inactive)
GI50 [39]: > 100 µM (inactive)
GI50 [40]: > 82.2 µM (inactive)
GI50 [41]: 71.6 µM (inactive)
GI50 [42]: > 94.8 µM (inactive)
GI50 [43]: > 100 µM (inactive)
GI50 [44]: > 63 µM (inactive)
GI50 [45]: > 100 µM (inactive)
GI50 [46]: > 56.9 µM (inactive)
GI50 [47]: > 100 µM (inactive)
GI50 [49]: 52 µM (inactive)
GI50 [55]: > 100 µM (inactive)
GI50 [50]: 45.9 µM (inactive)
GI50 [51]: 45.7 µM (inactive)
GI50 [52]: 72.8 µM (inactive)

O=C(CCN1CCCCC1CO)Nc1ccc2c(c1)C(=O)c1ccc(NC(=O)CCN3CCCCC3CO)cc1C2=O (centres undefined)
GI50 [1]: 1.98 µM (inactive)
GI50 [2]: 2.25 µM (inactive)
GI50 [3]: 27.9 µM (inactive)
GI50 [4]: 11.8 µM (inactive)
GI50 [56]: 13.5 µM (inactive)
GI50 [5]: 3.61 µM (inactive)
GI50 [6]: 7.71 µM (inactive)
GI50 [8]: 14.1 µM (inactive)
GI50 [9]: 5.16 µM (inactive)
GI50 [10]: 19.1 µM (inactive)
GI50 [53]: 9.35 µM (inactive)
GI50 [11]: 7.38 µM (inactive)
GI50 [12]: 14.2 µM
GI50 [13]: 10.6 µM (inactive)
GI50 [14]: 14.5 µM (inactive)
GI50 [15]: 15.5 µM (inactive)
GI50 [16]: 11.4 µM (inactive)
GI50 [17]: 9.68 µM (inactive)
GI50 [18]: 6.25 µM (inactive)
GI50 [19]: 25.6 µM (inactive)
GI50 [20]: 4.34 µM (inactive)
GI50 [21]: 6.93 µM (inactive)
GI50 [22]: 2.34 µM (inactive)
GI50 [23]: 10.4 µM (inactive)
GI50 [24]: 15.8 µM (inactive)
GI50 [25]: 8.39 µM (inactive)
GI50 [54]: 5.27 µM (inactive)
GI50 [26]: 18.8 µM (inactive)
GI50 [27]: 17 µM (inactive)
GI50 [28]: 6.58 µM (inactive)
GI50 [29]: 8.18 µM (inactive)
GI50 [31]: 11.5 µM (inactive)
GI50 [32]: 18.7 µM (inactive)
GI50 [33]: 6.73 µM (inactive)
GI50 [34]: 13.2 µM (inactive)
GI50 [35]: 2 µM (inactive)
GI50 [36]: 10 µM (inactive)
GI50 [37]: 23.8 µM (inactive)
GI50 [38]: 3.6 µM (inactive)
GI50 [39]: 12.9 µM (inactive)
GI50 [40]: 4.58 µM (inactive)
GI50 [41]: 15.4 µM (inactive)
GI50 [42]: 13.7 µM (inactive)
GI50 [43]: 6.68 µM (inactive)
GI50 [44]: 11 µM (inactive)
GI50 [45]: 4.28 µM (inactive)
GI50 [46]: 7.36 µM (inactive)
GI50 [59]: 10.7 µM (inactive)
GI50 [47]: 3.64 µM (inactive)
GI50 [48]: 8.3 µM (inactive)
GI50 [49]: 8.13 µM (inactive)
GI50 [55]: 14.4 µM (inactive)
GI50 [50]: 8.95 µM (inactive)
GI50 [51]: 13.8 µM (inactive)
